From BigSolDB 2.1

C=CC(=O)Nc1cc(F)c(Br)c(F)c1
Settings	solubility (mole fraction)
in acetonitrile, 284.65 K	0.006
in acetonitrile, 291.45 K	0.0079
in acetonitrile, 294.75 K	0.009
in acetonitrile, 298.25 K	0.0104
in acetonitrile, 301.85 K	0.0121
in acetonitrile, 305.35 K	0.0139
in acetonitrile, 308.45 K	0.0158
in acetonitrile, 312.75 K	0.0186
in acetonitrile, 316.65 K	0.0217
in acetonitrile, 320.05 K	0.0248
in acetonitrile, 323.85 K	0.0288
in acetonitrile, 327.65 K	0.0332
in acetonitrile, 331.75 K	0.0386
in acetonitrile, 334.15 K	0.0423
in acetonitrile, 337.75 K	0.0482
in acetonitrile, 340.45 K	0.0533
in acetonitrile, 343.55 K	0.0596
in acetonitrile, 346.35 K	0.0662
in acetonitrile, 348.95 K	0.0725
in benzene, 296.35 K	0.0007
in benzene, 302.95 K	0.0011
in benzene, 308.75 K	0.0014
in benzene, 310.75 K	0.0015
in benzene, 317.65 K	0.0022
in benzene, 324.25 K	0.003
in benzene, 332.05 K	0.0044
in benzene, 335.95 K	0.0054
in benzene, 340.85 K	0.0067
in benzene, 347.05 K	0.0094
in ethanol, 295.25 K	0.0251
in ethanol, 297.65 K	0.0264
in ethanol, 301.55 K	0.0292
in ethanol, 309.25 K	0.0351
in ethanol, 312.95 K	0.0384
in ethanol, 318.55 K	0.044
in ethanol, 326.45 K	0.0534
in ethanol, 331.35 K	0.0604
in ethanol, 334.85 K	0.0659
in ethanol, 339.55 K	0.074
in ethanol, 344.45 K	0.0838
in ethanol, 347.55 K	0.0905
in methanol, 294.25 K	0.0142
in methanol, 298.65 K	0.0163
in methanol, 303.16 K	0.0189
in methanol, 308.45 K	0.0221
in methanol, 312.35 K	0.0249
in methanol, 318.15 K	0.0298
in methanol, 321.05 K	0.0325
in methanol, 324.65 K	0.036
in methanol, 327.45 K	0.0391
in methanol, 328.95 K	0.041
in pyridine, 288.95 K	0.139
in pyridine, 292.45 K	0.145
in pyridine, 298.95 K	0.157
in pyridine, 303.85 K	0.166
in pyridine, 310.25 K	0.178
in pyridine, 317.05 K	0.193
in pyridine, 322.55 K	0.205
in pyridine, 328.45 K	0.219
in pyridine, 333.15 K	0.23
in pyridine, 338.25 K	0.243
in pyridine, 344.95 K	0.262
in pyridine, 348.85 K	0.273
in toluene, 286.65 K	0.0006
in toluene, 291.95 K	0.0008
in toluene, 292.05 K	0.0008
in toluene, 295.95 K	0.0009
in toluene, 301.75 K	0.0011
in toluene, 301.85 K	0.0012
in toluene, 307.95 K	0.0015
in toluene, 312.05 K	0.0019
in toluene, 316.05 K	0.0022
in toluene, 319.25 K	0.0026
in toluene, 323.75 K	0.003
in toluene, 327.95 K	0.0035
in toluene, 331.15 K	0.0043
in toluene, 334.65 K	0.0051
in toluene, 337.65 K	0.0059
in toluene, 342.35 K	0.0069
